Experimental findings from patent US12448392B2, “Spiropiperidine derivatives” (89BIO LTD, priority 2016, dated 2025) are described below.

A word on the IC50: it is the midpoint of a concentration-inhibition curve.

The target in one experiment is T1, recombinant human baculovirus-expressed GST-tagged FASN (Homo sapiens, UniProt P49327).
T1 construct: GST
T1 sequence (P49327 whole entry): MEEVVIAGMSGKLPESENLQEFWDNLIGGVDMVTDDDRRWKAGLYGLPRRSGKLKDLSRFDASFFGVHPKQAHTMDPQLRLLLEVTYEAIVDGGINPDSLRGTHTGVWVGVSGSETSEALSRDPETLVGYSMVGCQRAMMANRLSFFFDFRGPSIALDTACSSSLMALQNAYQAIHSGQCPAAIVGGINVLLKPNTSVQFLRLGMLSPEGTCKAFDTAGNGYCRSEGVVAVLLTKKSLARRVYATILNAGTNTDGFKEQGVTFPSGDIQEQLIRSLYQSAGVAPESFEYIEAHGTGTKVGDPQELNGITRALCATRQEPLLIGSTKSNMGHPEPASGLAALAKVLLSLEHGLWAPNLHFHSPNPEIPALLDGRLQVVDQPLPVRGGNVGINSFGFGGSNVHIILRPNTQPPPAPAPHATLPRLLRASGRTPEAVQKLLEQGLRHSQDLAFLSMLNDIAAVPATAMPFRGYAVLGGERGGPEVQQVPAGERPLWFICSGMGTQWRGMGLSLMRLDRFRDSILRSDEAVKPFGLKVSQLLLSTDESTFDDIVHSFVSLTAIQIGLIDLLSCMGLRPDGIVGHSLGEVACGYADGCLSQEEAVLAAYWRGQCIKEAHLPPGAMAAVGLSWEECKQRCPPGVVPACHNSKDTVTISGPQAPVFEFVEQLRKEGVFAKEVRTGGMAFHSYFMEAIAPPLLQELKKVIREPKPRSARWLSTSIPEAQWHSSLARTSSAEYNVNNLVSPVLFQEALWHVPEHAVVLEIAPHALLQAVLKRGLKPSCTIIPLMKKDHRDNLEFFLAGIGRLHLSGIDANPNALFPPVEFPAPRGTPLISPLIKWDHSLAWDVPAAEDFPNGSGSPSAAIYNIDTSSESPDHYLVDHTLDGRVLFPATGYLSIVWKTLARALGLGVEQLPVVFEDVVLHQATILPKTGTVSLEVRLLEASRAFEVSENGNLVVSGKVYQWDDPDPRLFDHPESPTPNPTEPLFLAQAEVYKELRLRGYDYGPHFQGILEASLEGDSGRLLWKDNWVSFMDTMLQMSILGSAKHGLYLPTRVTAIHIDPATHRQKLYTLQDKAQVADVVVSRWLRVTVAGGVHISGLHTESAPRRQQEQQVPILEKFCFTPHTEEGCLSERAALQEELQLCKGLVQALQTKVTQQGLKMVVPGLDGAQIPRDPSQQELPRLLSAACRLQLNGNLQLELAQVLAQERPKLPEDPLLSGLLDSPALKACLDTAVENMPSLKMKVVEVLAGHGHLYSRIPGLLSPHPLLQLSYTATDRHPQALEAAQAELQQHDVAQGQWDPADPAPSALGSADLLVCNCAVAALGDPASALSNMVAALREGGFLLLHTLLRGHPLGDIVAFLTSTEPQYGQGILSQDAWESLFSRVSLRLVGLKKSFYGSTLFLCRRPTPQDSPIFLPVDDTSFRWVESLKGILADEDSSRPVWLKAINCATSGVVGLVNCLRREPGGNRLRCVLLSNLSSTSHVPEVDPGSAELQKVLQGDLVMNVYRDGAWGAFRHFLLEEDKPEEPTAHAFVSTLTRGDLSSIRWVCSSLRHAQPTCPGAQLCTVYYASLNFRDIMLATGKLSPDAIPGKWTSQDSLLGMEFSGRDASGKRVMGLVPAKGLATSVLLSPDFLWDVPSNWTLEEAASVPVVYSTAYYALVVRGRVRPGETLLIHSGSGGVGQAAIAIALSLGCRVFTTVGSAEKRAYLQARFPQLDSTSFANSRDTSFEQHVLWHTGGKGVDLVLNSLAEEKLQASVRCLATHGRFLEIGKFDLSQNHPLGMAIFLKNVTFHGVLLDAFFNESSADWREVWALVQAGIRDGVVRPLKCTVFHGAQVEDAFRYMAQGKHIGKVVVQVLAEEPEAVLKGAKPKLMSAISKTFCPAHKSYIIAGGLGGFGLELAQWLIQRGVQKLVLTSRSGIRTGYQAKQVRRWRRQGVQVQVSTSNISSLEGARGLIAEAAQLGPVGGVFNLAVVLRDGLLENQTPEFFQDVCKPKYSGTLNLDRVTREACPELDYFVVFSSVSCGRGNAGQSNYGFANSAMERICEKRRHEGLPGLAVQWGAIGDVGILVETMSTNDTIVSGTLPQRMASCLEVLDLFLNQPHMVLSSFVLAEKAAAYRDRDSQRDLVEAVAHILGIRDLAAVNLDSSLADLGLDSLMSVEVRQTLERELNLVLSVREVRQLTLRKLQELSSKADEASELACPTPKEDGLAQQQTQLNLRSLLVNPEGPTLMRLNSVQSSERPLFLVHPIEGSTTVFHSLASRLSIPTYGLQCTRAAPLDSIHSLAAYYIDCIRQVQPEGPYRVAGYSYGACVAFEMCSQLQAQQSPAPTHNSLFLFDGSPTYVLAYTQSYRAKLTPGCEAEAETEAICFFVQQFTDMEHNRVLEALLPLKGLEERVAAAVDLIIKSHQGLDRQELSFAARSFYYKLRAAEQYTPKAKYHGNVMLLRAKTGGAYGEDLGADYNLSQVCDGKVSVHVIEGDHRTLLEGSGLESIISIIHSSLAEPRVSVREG
The experiment can be described thus: biochemical.
Details: not given
As for `COc1c(-c2ccc3c(c2)COC2(CCN(C(N)=O)CC2)O3)ccc2cccnc12` [Example 174, 6-(8-Methoxy-7-quinolyl)spiro[4H-1,3-benzodioxine-2,4′-piperidine]-1′-carboxamide], the half-maximal inhibitory concentration (IC50) lay in the range of 1 to 99 nM.
In the case of `CCOC(=O)N1CCC2(CC1)OCc1cc(-c3ccc4cccnc4c3OC)ccc1O2` [Example 176, Ethyl 6-(8-methoxy-7-quinolyl)spiro[4H-1,3-benzodioxine-2,4′-piperidine]-1′-carboxylate], the IC50 was 100 to 999 nM.
For `Cc1nccc2cc(-c3ccc4c(c3)COC3(CCN(C(=O)NOC(C)C)CC3)O4)ccc12` [Example 182, N-Isopropoxy-6-(1-methyl-6-isoquinolyl)spiro[4H-1,3-benzodioxine-2,4′-piperidine]-1′-carboxamide], the IC50 is 1 to 99 nM.
Same read-out and setting: then `Cc1nccc2cc(-c3ccc4c(c3)COC3(CCN(C(N)=O)CC3)O4)ccc12` [Example 194, 6-(1-Methyl-6-isoquinolyl)spiro[4H-1,3-benzodioxine-2,4′-piperidine]-1′-carboxamide], with 100 to 999 nM.
`CONC(=O)N1CCC2(CC1)OCc1cc(-c3ccc4c(C)nccc4c3)ccc1O2` [Example 195, N-methoxy-6-(1-methyl-6-isoquinolyl)spiro[4H-1,3-benzodioxine-2,4′-piperidine]-1′-carboxamide]: the IC50 lay in the range of 1 to 99 nM.
On to `CCONC(=O)N1CCC2(CC1)OCc1cc(-c3ccc4c(C)nccc4c3)ccc1O2` [Example 196, N-Ethoxy-6-(1-methyl-6-isoquinolyl)spiro[4H-1,3-benzodioxine-2,4′-piperidine]-1′-carboxamide], for which the IC50 was 1 to 99 nM.
Regarding `CCNC(=O)N1CCC2(CC1)OCc1cc(-c3ccc4c(C)nccc4c3)ccc1O2` [Example 197, N-ethyl-6-(1-methyl-6-isoquinolyl)spiro[4H-1,3-benzodioxine-2,4′-piperidine]-1′-carboxamide], the IC50 was in the range of 1 to 99 nM.
In the case of `CCOC(=O)N1CCC2(CC1)OCc1cc(-c3ccc4cnc(Cl)cc4c3)ccc1O2` [Example 198, Ethyl 6-(3-chloro-6-isoquinolyl)spiro[4H-1,3-benzodioxine-2,4′-piperidine]-1′-carboxylate], the IC50 is 1000 to 10000 nM.
Still for that read-out and setting: the figure for `Cc1nccc2cc(-c3ccc4c(c3)COC3(CCN(C(=O)NO)CC3)O4)ccc12` [Example 199, 6-(1-Methyl-6-isoquinolyl)spiro[4H-1,3-benzodioxine-2,4′-piperidine]-1′-carbohydroxamic acid] is 1000 to 10000 nM; for `CCOC(=O)N1CCC2(CC1)OCc1cc(-c3ccc4cnc(C)cc4c3)ccc1O2` [Example 200, Ethyl 6-(3-methyl-6-isoquinolyl)spiro[4H-1,3-benzodioxine-2,4′-piperidine]-1′-carboxylate] it is 1000 to 10000 nM; for `Cc1cc2cc(-c3ccc4c(c3)COC3(CCN(C(N)=O)CC3)O4)ccc2cn1` [Example 201, 6-(3-Methyl-6-isoquinolyl)spiro[4H-1,3-benzodioxine-2,4′-piperidine]-1′-carboxamide] it is 1000 to 10000 nM.
The same measure, in the same setting: then `CCNC(=O)N1CCC2(CC1)OCc1cc(-c3ccc4cnc(C)cc4c3)ccc1O2` [Example 202, N-Ethyl-6-(3-methyl-6-isoquinolyl)spiro[4H-1,3-benzodioxine-2,4′-piperidine]-1′-carboxamide], with 1 to 99 nM; and `CCONC(=O)N1CCC2(CC1)OCc1cc(-c3ccc4cnc(C)cc4c3)ccc1O2` [Example 203, N-Ethoxy-6-(3-methyl-6-isoquinolyl)spiro[4H-1,3-benzodioxine-2,4′-piperidine]-1′-carboxamide], with 1 to 99 nM.
For the molecule `Cc1cc2cc(-c3ccc4c(c3)COC3(CCN(C(=O)NO)CC3)O4)ccc2cn1` [Example 204, 6-(3-Methyl-6-isoquinolyl)spiro[4H-1,3-benzodioxine-2,4′-piperidine]-1′-carbohydroxamic acid], the IC50 lay within 100 to 999 nM.
On to `CONC(=O)N1CCC2(CC1)OCc1cc(-c3ccc4cnc(C)cc4c3)ccc1O2` [Example 205, N-Methoxy-6-(3-methyl-6-isoquinolyl)spiro[4H-1,3-benzodioxine-2,4′-piperidine]-1′-carboxamide], for which the IC50 was 1 to 99 nM.

Still in this experiment, the particulars now being: 5 nM FASN, 150 μM NADPH, 10 μM acetyl-CoA, 25 μM malonyl-CoA, 90 minutes incubation; read-out: IC50 data for Compounds of Formula I, Activity.
In the case of `Cc1c(-c2ccc3c(c2)CC2(CCN(C(=O)NOC4CCCCO4)CC2)O3)ccc2ccnn12` (stereo not shown) [Example 171, 5-(7-Methylpyrazolo[1,5-a]pyridin-6-yl)-N-tetrahydropyran-2-yloxy-spiro[3H-benzofuran-2,4′-piperidine]-1′-carboxamide], the IC50 is 1000 to 10000 nM.
Take `Cc1c(-c2ccc3c(c2)CCC2(CCN(C(N)=O)CC2)O3)ccc2ccc(=O)[nH]c12` [Example 172, 6-(8-Methyl-2-oxo-1H-quinolin-7-yl)spiro[chromane-2,4′-piperidine]-1′-carboxamide]: the IC50 lay in the range of 1000 to 10000 nM.
In the case of `COc1c(-c2ccc3c(c2)CC2(CCN(C(=O)NO)CC2)O3)ccc2cccnc12` [Example 173, 5-(8-Methoxy-7-quinolyl)spiro[3H-benzofuran-2,4′-piperidine]-1′-carbohydroxamic acid], the IC50 was 1000 to 10000 nM.
As to `COc1c(-c2ccc3c(c2)CCC2(CCN(C(N)=O)CC2)O3)ccc2cccnc12` [Example 175, 6-(8-Methoxy-7-quinolyl)spiro[chromane-2,4′-piperidine]-1′-carboxamide], the IC50 was 1 to 99 nM.
`CC(C)CNC(=O)N1CCC2(CCc3cc(-c4ccc5nccn5c4Cl)ccc3O2)CC1` [Example 177, 6-(5-Chloroimidazo[1,2-a]pyridin-6-yl)-N-isobutyl-spiro[chromane-2,4′-piperidine]-1′-carboxamide]: the IC50 was 1 to 99 nM.
Consider `Cc1nccc2cc(-c3ccc4c(c3)CCC3(CCN(C(=O)NCC(C)C)CC3)O4)ccc12` [Example 178, N-Isobutyl-6-(1-methyl-6-isoquinolyl)spiro[chromane-2,4′-piperidine]-1′-carboxamide], for which the IC50 is 1 to 99 nM.
On to `CC(C)ONC(=O)N1CCC2(CCc3cc(-c4ccc5nccn5c4Cl)ccc3O2)CC1` [Example 179, 6-(5-Chloroimidazo[1,2-a]pyridin-6-yl)-N-isopropoxy-spiro[chromane-2,4′-piperidine]-1′-carboxamide], for which the IC50 fell in the range of 1 to 99 nM.
For the molecule `Cc1nccc2cc(-c3ccc4c(c3)CCC3(CCN(C(=O)NOC(C)C)CC3)O4)ccc12` [Example 180, N-Isopropoxy-6-(1-methyl-6-isoquinolyl)spiro[chromane-2,4′-piperidine]-1′-carboxamide], the IC50 is 1 to 99 nM.
Take `CCONC(=O)N1CCC2(CCc3cc(-c4cnc5ccccc5c4C)ccc3O2)CC1` [Example 181, N-Ethoxy-6-(4-methyl-3-quinolyl)spiro[chromane-2,4′-piperidine]-1′-carboxamide]: the IC50 lay within 1 to 99 nM.
Take `Cc1nccc2cc(-c3ccc4c(c3)CCC3(CCN(C(N)=O)CC3)O4)ccc12` [Example 183, 6-(1-Methyl-6-isoquinolyl)spiro[chromane-2,4′-piperidine]-1′-carboxamide]: the IC50 was 100 to 999 nM.
For the molecule `CONC(=O)N1CCC2(CCc3cc(-c4ccc5c(C)nccc5c4)ccc3O2)CC1` [Example 184, N-methoxy-6-(1-methyl-6-isoquinolyl)spiro[chromane-2,4′-piperidine]-1′-carboxamide], the IC50 is 1 to 99 nM.
For the molecule `CCONC(=O)N1CCC2(CCc3cc(-c4ccc5c(C)nccc5c4)ccc3O2)CC1` [Example 185, N-ethoxy-6-(1-methyl-6-isoquinolyl)spiro[chromane-2,4′-piperidine]-1′-carboxamide], the half-maximal inhibitory concentration (IC50) lay within 1 to 99 nM.
The same measure, in the same setting: the figure for `CCCONC(=O)N1CCC2(CCc3cc(-c4ccc5c(C)nccc5c4)ccc3O2)CC1` [Example 186, 6-(1-Methyl-6-isoquinolyl)-N-propoxy-spiro[chromane-2,4′-piperidine]-1′-carboxamide] is 1 to 99 nM; for `CCNC(=O)N1CCC2(CCc3cc(-c4ccc5c(C)nccc5c4)ccc3O2)CC1` [Example 187, N-Ethyl-6-(1-methyl-6-isoquinolyl)spiro[chromane-2,4′-piperidine]-1′-carboxamide] it is 1 to 99 nM.
For `CCCNC(=O)N1CCC2(CCc3cc(-c4ccc5c(C)nccc5c4)ccc3O2)CC1` [Example 188, 6-(1-methyl-6-isoquinolyl)-N-propyl-spiro[chromane-2,4′-piperidine]-1′-carboxamide], the IC50 is 1 to 99 nM.
Same read-out and setting: then `Cc1nccc2cc(-c3ccc4c(c3)CCC3(CCN(C(=O)NO)CC3)O4)ccc12` [Example 189, 6-(1-Methyl-6-isoquinolyl)spiro[chromane-2,4′-piperidine]-1′-carbohydroxamic acid], with 1000 to 10000 nM.
Turning to `Cc1c(-c2ccc3c(c2)CCC2(CCN(C(N)=O)CC2)O3)cnc2ccccc12` [Example 190, 6-(4-methyl-3-quinolyl)spiro[chromane-2,4′-piperidine]-1′-carboxamide], the IC50 lay within 1 to 99 nM.
On to `Cc1c(-c2ccc3c(c2)CCC2(CCN(C(=O)NO)CC2)O3)cnc2ccccc12` [Example 191, 6-(4-Methyl-3-quinolyl)spiro[chromane-2,4′-piperidine]-1′-carbohydroxamic acid], for which the IC50 is 100 to 999 nM.
`CONC(=O)N1CCC2(CCc3cc(-c4cnc5ccccc5c4C)ccc3O2)CC1` [Example 192, N-Methoxy-6-(4-methyl-3-quinolyl)spiro[chromane-2,4′-piperidine]-1′-carboxamide]: the IC50 is 1 to 99 nM.
As for `Cc1c(-c2ccc3c(c2)CCC2(CCN(C(=O)NOC(C)C)CC2)O3)cnc2ccccc12` [Example 193, N-isopropoxy-6-(4-methyl-3-quinolyl)spiro[chromane-2,4′-piperidine]-1′-carboxamide], the IC50 is 1 to 99 nM.
In the case of `Cc1cc2cc(-c3ccc4c(c3)CCC3(CCN(C(N)=O)CC3)O4)ccc2cn1` [Example 206, 6-(3-Methyl-6-isoquinolyl)spiro[chromane-2,4′-piperidine]-1′-carboxamide], the IC50 fell in the range of 1000 to 10000 nM.
As to `CCONC(=O)N1CCC2(CCc3cc(-c4ccc5cnc(C)cc5c4)ccc3O2)CC1` [Example 207, N-Ethoxy-6-(3-methyl-6-isoquinolyl)spiro[chromane-2,4′-piperidine]-1′-carboxamide], the IC50 is 1 to 99 nM.
